# From PubChem BioAssay AID1996
# Settings: buffer; pH 7.4; 200.0 µM
row,SMILES,solubility kinetic [µg/mL]
1,N#Cc1ccc(-c2nc3ccc(Br)cc3c(=O)n2O)cc1,18.1
2,COc1ccccc1C(=O)O/N=C(\c1ccccc1)c1ccncc1,34
3,O=C(COC(=O)CCC(=O)c1cccs1)Nc1ccc(F)c(F)c1F,8.1
4,CN(C)CCN(Cc1cccs1)c1ccccn1.Cl,> 44.7
5,O=C(NCC1CCCO1)c1cc(-c2ccc(F)cc2)no1 (configuration not stated),> 43.5
6,O=C(COc1cccc(F)c1)Nc1nc(-c2ccncc2)cs1,5
7,O=S(=O)(c1cc(F)ccc1F)N1CCC2(CC1)OCCO2,> 47.9
8,CCNC(=O)Cc1ccc(S(=O)(=O)N2CCOCC2)s1,> 47.8
9,O=C(NCc1ccc(F)cc1)c1cnccn1,> 34.7
10,CN(C)S(=O)(=O)c1ccc(=S)[nH]c1,12.2
11,Cc1ccsc1C(=O)NCCc1ccc(S(N)(=O)=O)cc1,32.8
12,COc1cc(NC(=O)N[C@@H](CCSC)C(=O)O)cc(OC)c1,> 49.3
13,S=c1[nH]c2ccccc2n1CCOc1ccccc1,20.2
14,O=C(COC(=O)c1cccnc1Cl)NCCc1ccccc1,> 47.8
15,COC(=O)c1c(C)[nH]c(C(=O)OCC(=O)NC(C)(C)C)c1C,> 46.6
16,COc1ccc(OC)c(/C=C2\NC(=O)NC2=O)c1,9.5
17,CC(NC(=O)COC(=O)c1nc(Cl)ccc1Cl)c1ccccc1 (configuration not stated),> 53
18,Cn1cccc1C(=O)NC(=O)COC(=O)c1ccc(S(C)(=O)=O)c([N+](=O)[O-])c1,14.7
19,CCN(CC)c1ccc(/C=N/O)cc1,> 28.8

row,SMILES,solubility kinetic [µg/mL]
1,COc1cc(Br)c(Br)c(Br)c1N,0.9
2,COc1cc(OC)c(C2Nc3cccc4cccc(c34)N2)c(OC)c1,4.4
3,Clc1ccc(-c2cnc3n2CCCCC3)cc1,> 37
4,COc1ccc(C(=O)O/N=C(/C(N)=O)P(=O)(OC(C)C)OC(C)C)cc1,49.1
5,O=C(CCCOc1ccccc1)NNC(=O)c1ccncc1,> 44.9
6,CCOc1ccc(CNc2ccc(N3CCCC3)cc2)cc1,3.1
7,CCC(=O)NNc1nc2c(F)cccc2s1,> 35.9
8,COc1cc(OC)nc(Oc2cccc(Cl)c2C)n1,1.5
9,Cc1cc(NC(=O)CCl)no1,> 26.2
10,COc1cc(OC)nc(Oc2ccc(N)c(C)c2)n1,> 39.2
11,Cc1ccc(N2CCCC2=O)cc1S(=O)(=O)N1CCOCC1,> 48.7
12,COc1ccc(Nc2nccc3c2ncn3C)cc1,> 38.1
13,O=C(Nc1ccncc1)Nc1cccc(F)c1,> 34.7
14,O=C1S/C(=C\c2cccs2)C(=O)N1c1ccc(O)cc1,< 0.6
15,Cc1ccc(OCCCCCN2CCOCC2)cc1,32.3
16,O=C(CSC(=S)N1CCOCC1)Nc1ncc2c(n1)CCCC2=O,54.7
17,Nc1nc(Nc2ccccc2F)nc(NCCO)c1[N+](=O)[O-],45.8
18,CCCOc1ccc(C(CC(=O)O)NC(=O)Cc2ccccc2)cc1 (configuration not stated),> 51.2
19,CCN1CCN(C(=S)NC(=O)c2cccs2)CC1,> 42.5

row,SMILES,solubility kinetic [µg/mL]
1,O=C(/C=C/c1ccco1)N(Cc1ccc(F)cc1)C1CCS(=O)(=O)C1 (configuration not stated),> 54.5
2,O=C1SCCC1NS(=O)(=O)c1ccc([N+](=O)[O-])cc1 (configuration not stated),38.3
3,O=C(Cc1ccc([N+](=O)[O-])cc1)Nc1ccc(Cl)cc1,4.5
4,CCOC(=O)c1nsnc1NCCCl,22.7
5,COc1cc(/C=C/[N+](=O)[O-])ccc1OC(=O)/C=C/c1ccc(F)cc1,< 0.7
6,CNC(=S)SCCOc1ccccc1,17.5
7,COc1ccc(CCC(=O)OCC(=O)NC(=O)c2ccc(Cl)cc2)cc1,7.2
8,O=c1[nH]c(CSc2ncn[nH]2)nc2ccccc12,> 38.9
9,O=[N+]([O-])c1cccnc1Oc1ccc(C2SCCS2)cc1,< 0.3
10,C=CCc1c(N(CC)CC)nc(C)[nH]c1=O,> 33.2
11,COc1cc(C(=O)N2CCCN(C)CC2)cc(OC)c1C.Cl,> 49.3
12,O=C1CNC(=S)N1Cc1ccc(F)cc1,> 33.6
13,c1ccc(CN2CCc3nc4ccccc4cc3C2)cc1,33.2
14,O=[N+]([O-])c1ccc(N2CCCC2)nc1N1CCCC1,21.4
15,O=C(CCCCl)Nc1nc(-c2ccc3c(c2)OCCO3)cs1,1.1
16,N#CCCN=C(NS(=O)(=O)c1ccccc1)c1ccccc1,> 47
17,CC(C(=O)O/N=C(\N)c1ccccn1)c1ccc([N+](=O)[O-])cc1 (configuration not stated),> 47.1
18,CCOc1cc(C(=O)NCc2ccco2)cc(OCC)c1OCC,49.7

# More lines, now with the values ahead:
row,solubility kinetic [µg/mL],SMILES
1,13.6,Cc1ccccc1C(=O)Nc1ccc(N(C)C)c2ccccc12
2,> 38.6,CCCc1cc(=O)[nH]c(NCCc2ccccc2)n1
3,19.9,CCC1CCC2(CC1)NC(=O)N(CC(=O)NCc1ccccc1Cl)C2=O (configuration not stated)
4,> 50.8,CC(Nc1ccc2c(c1)OCCO2)C(=O)N1c2ccccc2CC1C (configuration not stated)
5,4.6,CCCOc1ccc(N2C(=O)C3C4C=CC(CC4)C3C2=O)cc1 (configuration not stated)
6,> 49,O=C(O)CC1(CC(=O)Nc2ccc3ccccc3n2)CCCCC1
7,38.1,Cc1ccc(C(=O)NCCN2CCOCC2)cc1C
8,> 46.9,Cc1cccc(C)c1NC(=O)CN1C(=O)C2CC=CCC2C1=O (configuration not stated)
9,25,COc1cccc(Cn2c(=O)oc3ccccc32)c1
10,49.8,CC1=C(C(=O)N(C)C)C(c2ccc(N3CCOCC3)cc2)NC(=O)N1 (configuration not stated)
11,54.9,COc1cc(/C=C/C(=O)OCC(=O)NC(C)c2ccccc2)cc(OC)c1OC (configuration not stated)
12,1.5,CCOc1ccc2oc(C(=O)OCC(=O)NC3CC3)c(C)c2c1
13,5.7,O=C(Nc1ccccc1)Nc1cccc2nsnc12
14,19.9,O=[N+]([O-])c1ccc(N2CCCCC2)cc1
15,39.5,O=C(NC(=S)N1CCCC1)c1cccc([N+](=O)[O-])c1
16,19.4,COCCn1c(SCC(=O)Nc2ccc3[nH]c(=O)[nH]c3c2)nc2ccccc21
17,7.7,CC(=O)c1ccccc1NC(=O)COC(=O)CCC1CCCC1
18,> 43.6,CCC(CC)C(=O)Nc1cccc(C(=O)NC(C)(C)C)c1
19,> 42.8,CC(=O)C1C(c2ccccc2)c2c(noc2C)CC1(C)O (configuration not stated)
20,48.9,CC(CN1CCOCC1)OC(=O)c1ccc(Cl)cc1Cl.Cl (configuration not stated)
21,> 47.8,COc1ccc(NC(=O)CN(C)C(=O)CC2CCCCC2)cc1
22,> 47.2,CC(CCc1ccccc1)NC(=O)COC(=O)c1cccn1C (configuration not stated)

row,solubility kinetic [µg/mL],SMILES
1,> 47.3,C[C@H](NC(=O)[C@@H]1Cc2ccccc2CN1)C(=O)NC1CCCC1
2,8.1,CC1(c2ccccc2Br)NC(=O)N(CC(=O)N2CCc3ccccc3C2)C1=O (configuration not stated)
3,39.8,COC(=O)c1sccc1NC(=O)c1ccccc1C(=O)O
4,> 75.7,CN1CCN(c2ccc(S(=O)(=O)N3CCOCC3)cc2NC(=O)CSCc2ccccc2)CC1
5,40.5,CN1CCN(C(=O)C2CCC(C)(C(=O)O)C2(C)C)CC1 (configuration not stated)
6,> 41.7,NNC(=O)c1ccc(N2CCCCCC2)c([N+](=O)[O-])c1
7,> 37.1,CCCNC(=O)Cn1c(=O)n(C)c2ccccc21
8,13.7,COc1ccc(C(=O)NC(=O)COC(=O)C2CC2C)cc1 (configuration not stated)
9,43.8,O=C(c1ccco1)N1CCC(N2CCN(c3ccccc3)CC2)CC1
10,43.1,CC1(C)Cc2ccccc2C(CSc2ccccc2C(=O)O)=N1
11,6.1,Cc1nc([N+](=O)[O-])cn1CC(=O)Nc1ccc(Cl)cc1
12,> 44.6,O=C(O)CCCC(=O)Nc1ccc2c(c1)oc1ccccc12
13,4.5,CN(Cc1ccccc1)C(=O)c1ccc(COc2ccccc2)cc1
14,17,c1ccc(N2CCN(CC3CCCCC3)CC2)cc1
15,15.6,CCn1c(=O)c(C(=O)CN(C)CC(=O)Nc2cccc(F)c2)c(N)n(Cc2ccccc2)c1=O
16,> 45.1,O=C(NCc1ccccc1)C1CC(=O)N(C2CCCCC2)C1 (configuration not stated)
17,42.4,COc1ccc(C(=O)NCc2ccc3c(c2)OCO3)cc1
18,> 43.1,Cc1ccc(OCCCC(=O)NCc2ccco2)c(C)c1
19,36.5,Cc1nc(C(F)(F)F)ccc1C(=O)N1CCCCC1
20,15.2,Cn1cccc1/C=C1/SC(=O)N(CC(=O)N2CCCC2)C1=O
21,> 57.4,CCCN(CC(=O)Nc1ccccc1OC)C(=O)c1nc2nc(C)ccn2n1
22,8.3,CN1/C(=C/C(=O)C2CC2)C(C)(C)c2ccccc21

row,solubility kinetic [µg/mL],SMILES
1,> 39.4,O=C(NC(=S)N1CCCCCC1)c1ccccc1
2,> 48.4,O=C(c1ccco1)c1cn(CC(=O)N2CCCC2)c2ccccc12
3,> 39.6,Cc1ccc(NC(=O)N[C@H](C(=O)O)C(C)C)c(C)c1
4,37.4,O=C1CSC(=Nc2cccc(Cl)c2Cl)N1
5,40,CCS(=O)(=O)N1CCC(c2nc3ccccc3[nH]2)CC1
6,53.4,CCCC(=O)C1=C(O)C(C(=O)OC)C(C)(C)CC1=NCCc1ccccc1 (configuration not stated)
7,5.9,O=C(CSc1ncnc2sccc12)Nc1ccccc1F
8,> 37.5,Cc1ccnc(SCC(=O)c2cccs2)n1
9,0.7,NC(=O)CSc1nc(-c2ccccc2)nc2ccccc12
10,20.8,Cc1cc(C(=O)Nc2sccc2C#N)c2ccccc2n1
11,> 45,Cc1cccc(Oc2nc3c(c(=O)n(C)c(=O)n3C)n2C)c1
12,> 29.6,O=C1CS(=O)(=O)c2ccccc2N1
13,> 45.3,COc1ccccc1CCNC(=O)C1(C)CC1(Cl)Cl (configuration not stated)
14,> 30.2,CNC1=CC(=O)CC(c2ccccc2)C1 (configuration not stated)
15,> 36.2,CC(=O)NN1CCc2cc3ccc(C)cc3nc21
16,> 49,CCOc1ccccc1N(CC(=O)N1CCCC1)S(C)(=O)=O
17,2.2,COc1cc(SC)ccc1C(=O)Nc1ccc2c(c1)CCC2
18,> 44.2,CCS(=O)(=O)c1ncc(CO)n1CCc1ccccc1
19,0.9,COc1cc(=O)[nH]c(SC(C)C(=O)Nc2cccc3ccccc23)n1 (configuration not stated)
20,> 39,O=C(NCCc1ccccc1)c1ccccc1Cl
21,> 50.1,Cl.Clc1cccc(CN2C3=NCCCN3c3ccccc32)c1
22,47.7,CC1CC(C)CN(C(=O)CCNC(=O)c2ccccc2Cl)C1 (configuration not stated)
